“Also recorded” adds a separate entry of the source. Read-outs that look alike come from different tables or passages of the source. One block for each molecule: values may come before it. Square brackets hold non-standard residues; d marks the D form. Side chains are listed from the residue outwards. Peptide text beside a SMILES is read from it. hArg = N=C(N)NCCCC[C@H](N)C(=O)O; ΔPro = O=C(O)[C@@H]1C=CCN1; Dab = NCC[C@H](N)C(=O)O; Dhp = not defined here
Key:
VEGF-A165/NRP-1 complex [1] = biological target: T1, VEGF-A165/NRP-1 complex (Homo sapiens, UniProt O14786); test: Competitive NRP-1-binding assay (bt-VEGF-A165/NRP-1 complex inhibition, chemiluminescent detection); conditions: for IC50: inhibition of VEGF-A165/NRP-1 complex formation; for inhibition values (plateau): 1–50 μM concentrations, IC50 not calculable in this range
T1 construct: purchased R&D Systems (Minneapolis, MN, USA)
T1 sequence (O14786 22-641 limits assumed): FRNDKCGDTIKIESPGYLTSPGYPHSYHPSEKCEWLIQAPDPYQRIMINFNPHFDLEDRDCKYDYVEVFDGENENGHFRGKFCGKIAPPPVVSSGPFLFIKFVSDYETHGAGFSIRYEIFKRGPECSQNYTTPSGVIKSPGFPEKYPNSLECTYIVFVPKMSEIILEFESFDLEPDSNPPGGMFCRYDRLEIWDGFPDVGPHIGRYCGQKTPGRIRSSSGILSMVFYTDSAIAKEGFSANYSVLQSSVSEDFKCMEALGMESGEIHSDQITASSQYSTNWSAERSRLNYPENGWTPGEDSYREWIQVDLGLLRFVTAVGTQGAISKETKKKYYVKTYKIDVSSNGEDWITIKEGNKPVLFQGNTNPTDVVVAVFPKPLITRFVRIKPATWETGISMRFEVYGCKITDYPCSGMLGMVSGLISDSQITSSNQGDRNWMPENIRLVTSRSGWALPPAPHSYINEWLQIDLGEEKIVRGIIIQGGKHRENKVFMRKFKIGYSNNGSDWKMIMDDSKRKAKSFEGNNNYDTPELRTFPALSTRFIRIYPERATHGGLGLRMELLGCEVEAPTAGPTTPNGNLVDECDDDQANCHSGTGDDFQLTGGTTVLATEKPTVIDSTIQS
Protocol: The method used was similar to the one previously described. The first step was a coating of a 96-well plate using 100 μL (200 ng/well) of recombinant human NRP-1. After overnight incubation at 4 °C, nonspecific binding was blocked with 0.5% BSA in PBS. Next, 50 µL of peptide in PBS in selected concentrations and 50 µL of human (bt)-VEGF-A165 (400 ng/mL) in PBS containing 4 µg/mL of heparin were added and incubated for 2 h at r.t. After washing, wells were treated with streptavidin-horseradish peroxidase conjugate in PBS (1:8000) for 45 min. Final washing was followed by an addition of 100 µL chemiluminescent substrate and the immediate quantitative determination of the luminescence. Wells incubated with (bt)-VEGF-A165 only served as a positive control (P), while not-coated by NRP-1 wells were used for a negative control (NS). Percentages of inhibition were calculated by the following formula:100% − [[(S − NS)/(P − NS)]·100%],(1) where S is the signal intensity obtained from wells incubated with the peptide. Presented data are the mean ± SEM of two or three independent experiments, each performed in triplicate.
IC50 of the peptides were calculated using the nonlinear regression function with Prism (GraphPad Software, San Diego, CA, USA). The same software was used to calculate and present the plasma stability assay results. All results are represented as an average, with error bars indicating ± SEM.
Peptides were tested by the bt-VEGF-A165/NRP-1 complex inhibition assay with chemiluminescent detection, as previously described. […] The amino acid was inserted in the same places as the Cys-Asp fragment previously. Compounds 3 and 4 were tested by the bt-VEGF-A165/NRP-1 inhibition assay at 1–50 μM concentrations.
2. Dose-response curves of synthesized peptides
The concentration-dependent inhibitory dose-curve data were plotted as the percentage inhibition normalized to the controls, with the applied curve fits calculated using GraphPad Prism (Version 5.01, GraphPad software). Data are presented as log(inhibitor) versus a normalized response-variable slope. Error bars represent means +/- SEM for two or three independent experiments. […]

[2] = Degradation assay in human plasma (enzymatic stability); assay type: in vitro ADME; conditions: human blood plasma, 37 °C; for remaining at 24 h: after 24 h, read-out: initial concentration still present in plasma; for remaining at 96 h: after 96 h, read-out: concentration remaining in plasma
Protocol: This assay was performed according to the method described previously. First, human blood plasma was preactivated in an Eppendorf ThermoMixer® Comfort (Hamburg, Germany) for 20 min at 37 °C (350 rpm). Next, the peptide dissolved in water (6 mg/mL; ~5 μmol/mL) was mixed with human plasma (~1 μmol/mL final concentration) and incubated in the same conditions. One-hundred microliters of the mixture was collected in 1.5-mL microtubes at selected time intervals (0–96 h), followed by protein precipitation by adding 100 μL of 98% ethanol and by vortexing for 1 min (3000 min^−1). Samples were centrifuged for 10 min at 4 °C (11,000 g), and 100 μL of supernatant was collected and lyophilized. Reconstituted in 100 μL of water, samples were subjected to RP-HPLC analysis. LC-MS analyses with a Shimadzu LCMS-2020 mass spectrometer (Duisburg, Germany) were done for selected samples. A detailed description of the method can be found in the Supplementary Materials. All results are represented as an average, with error bars indicating ± SEM determined from the results of two independent experiments performed in duplicates.
Compounds were incubated in human plasma at 37 °C, and at selected time intervals, samples were analyzed using RP-HPLC and LC-MS, as described previously. […] After 24 h, almost 50% of each compound’s initial concentration was still present in the plasma. Following the next time intervals, we observed a significant degradation of peptide 3 (~20% after 96 h) but a much slower decrease in the concentration of peptide 4 (~40% after 96 h). This is probably due to the slower detachment of Cys residue from the side chain (peptide 4) compared to detachment from the main chain (peptide 3). […] However, unmodified peptides tend to have short half-lives counted rather in minutes, e.g., ghrelin [48] and endomorphins, and modifications lead to extending this time often to only a few hours.
Table S4. Confidence intervals (95%) determined for calculated IC50.
Compound IC50 (µM) 95% Confidence Intervals
3. Analytical data of serum degradation
Analysis of plasma degradation products was carried out by HPLC-ESI-Q-MS with a Prominence HPLC system (binary pump system LC-20AD and autosampler SIL-20AC HT coupled to a SPD-20A UV detector and LCMS-2020 quadrupole mass detector).
Chromatographic separation was achieved on a Phenomenex Jupiter Proteo C12 column (250 × 4.6 mm) at 35 °C. Mobile phases consisted of H2O:TFA (99.95:0.05 v/v, phase A) and ACN:TFA (99.95:0.05 v/v, phase B) at a flow rate of 1.2 mL/min. […]
Elution was performed with a gradient as follows: t = 25 min., 0%–25% B. The injection volume was 15 μl. UV spectra were recorded at 190 nm.
The electrospray ionization (ESI) was operated in positive mode. […]

VEGF-A165/NRP-1 complex [3] = biological target: T1, VEGF-A165/NRP-1 complex; conditions: cited from earlier work; for inhibition of the formation of the VEGF-A165/NRP-1 complex: concentration of 100 μM
human blood plasma = conditions: 37 °C, up to 96 h
PBS = conditions: 22 °C, up to 4 h
[4] = design: method as in PMID 30881620; conditions: human plasma; cited from earlier work
[5] = mean ± SEM, read-out: logIC50 (converted)
[6] = reference peptide, read-out: RP IC50

Molecule: C[C@@H](O)[C@H](N)C(=O)N[C@@H](CCCCN)C(=O)N1CCC[C@H]1C(=O)N[C@@H](CCCNC(=N)N)C(=O)O [Tuftsin, TKPR, reference compound] (H-TKPR-OH; N-terminus and C-terminus assumed)
inhibition at 100 µM (VEGF-A165/NRP-1 complex [1]; 100 µM concentration, read-out: percentage inhibitory effect): 46% | IC50 (VEGF-A165/NRP-1 complex [1]; read-out: IC50): 100 µM | IC50 (VEGF-A165/NRP-1 complex [3]; [6]): ≥ 100 µM

Molecule: CDKPRR
inhibition of the formation of the VEGF-A165/NRP-1 complex (VEGF-A165/NRP-1 complex [3]): ~100%

Molecule: DKPRR [CDKPRR lacking the N-terminal Cys]
percentage of inhibition of VEGF-A165/NRP-1 interaction (VEGF-A165/NRP-1 complex [3]; at 100 µM): ~ 20% | IC50 (VEGF-A165/NRP-1 complex [3]; [6]): > 100 µM

Molecule: ERTCDKPRR [fragment of the VEGF-A165 domain encoded by exons 7 and 8]
inhibition of the formation of the VEGF-A165/NRP-1 complex (VEGF-A165/NRP-1 complex [3]): ~100%

Molecule: H-CKPRR-OH [Compound 7, CKPRR]
IC50 (VEGF-A165/NRP-1 complex [1]; [5]): 0.187 µM

Molecule: H-CLPPR-OH [Compound 5, CLPPR]
IC50 (VEGF-A165/NRP-1 complex [1]; read-out: IC50): 11.4 µM | fold decrease of IC50 compared to the A7R peptide (VEGF-A165/NRP-1 complex [1]; vs A7R): seven-fold

Molecule: H-Cys-Lys(hArg)-Dab-Dhp-Arg-OH (H-CK(hArg)[Dab][ΔPro]R-OH; SMILES N=C(N)NCCCC[C@H](N)C(=O)NCCCC[C@H](NC(=O)[C@@H](N)CS)C(=O)N[C@@H](CCN)C(=O)N1CC=C[C@H]1C(=O)N[C@@H](CCCNC(=N)N)C(=O)O)
cleaved bond (human blood plasma): Cys-Lys, first_seen; also recorded: hArg-Lys; also recorded: Lys-Dab | fragment found (PBS): dimer, minor, 4 h

Molecule: H-Lys(hArg)-Dab-Dhp-Arg-OH (H-K(hArg)[Dab][Dhp]R-OH; reading uncertain; also: printed as H-Lys(hArg)-Dab-Dhp-Arg-OH) [PP, parent branched peptide, previously published NRP-1 ligand]
IC50 (VEGF-A165/NRP-1 complex [3]; parent peptide, data already published, read-out: IC50): 4.3 µM

Molecule: H-Lys(hArg)-Dab-Dhp-Arg-OH [PP]
t1/2 [4]: 51 h

Molecule: LPPR
share of A7R inhibition of NRP-1 activation by VEGF-A165 for which the sequence is responsible (VEGF-A165/NRP-1 complex [3]): 75%

Continued, in another order:

IC50 (VEGF-A165/NRP-1 complex [1]; read-out: IC50): 2.5 µM
Molecule: N=C(N)NCCCC[C@H](N)C(=O)NCCCC[C@H](NC(=O)[C@H](CC(=O)O)NC(=O)[C@@H](N)CS)C(=O)N[C@@H](CCN)C(=O)N1CC=C[C@H]1C(=O)N[C@@H](CCCNC(=N)N)C(=O)O [Compound 1, H-Cys-Asp-Lys(hArg)-Dab-Dhp-Arg-OH] (H-CDK(hArg)[Dab][ΔPro]R-OH)

IC50 (VEGF-A165/NRP-1 complex [1]; read-out: IC50): 2 µM
Molecule: N=C(N)NCCCC[C@H](NC(=O)[C@H](CC(=O)O)NC(=O)[C@@H](N)CS)C(=O)NCCCC[C@H](N)C(=O)N[C@@H](CCN)C(=O)N1CC=C[C@H]1C(=O)N[C@@H](CCCNC(=N)N)C(=O)O [Compound 2, H-Lys(Cys-Asp-hArg)-Dab-Dhp-Arg-OH] (H-K([hArg-Asp-Cys])[Dab][ΔPro]R-OH)

remaining at 24 h [2]: ~50% | remaining at 96 h [2]: ~20% | inhibition values (plateau) (VEGF-A165/NRP-1 complex [1]): ~ 80% | IC50 (VEGF-A165/NRP-1 complex [1]; [5]): 0.0834 µM
Molecule: N=C(N)NCCCC[C@H](N)C(=O)NCCCC[C@H](NC(=O)[C@@H](N)CS)C(=O)N[C@@H](CCN)C(=O)N1CC=C[C@H]1C(=O)N[C@@H](CCCNC(=N)N)C(=O)O [Compound 3, H-Cys-Lys(hArg)-Dab-Dhp-Arg-OH] (H-CK(hArg)[Dab][ΔPro]R-OH)

remaining at 24 h [2]: ~50% | remaining at 96 h [2]: ~40% | inhibition values (plateau) (VEGF-A165/NRP-1 complex [1]): ~ 80% | IC50 (VEGF-A165/NRP-1 complex [1]; [5]): 0.064 µM
Molecule: N=C(N)NCCCC[C@H](NC(=O)[C@@H](N)CS)C(=O)NCCCC[C@H](N)C(=O)N[C@@H](CCN)C(=O)N1CC=C[C@H]1C(=O)N[C@@H](CCCNC(=N)N)C(=O)O [Compound 4, H-Lys(Cys-hArg)-Dab-Dhp-Arg-OH] (H-K([hArg-Cys])[Dab][ΔPro]R-OH)

IC50 (VEGF-A165/NRP-1 complex [1]; read-out: IC50): 9.3 µM | fold increase of ligand affinity compared to tuftsin (VEGF-A165/NRP-1 complex [1]; vs tuftsin): more than 11 fold
Molecule: H-CTKPR-OH [Compound 6, CTKPR]

fragment found (PBS): dimer, minor, 4 h
Molecule: H-Lys(Cys-hArg)-Dab-Dhp-Arg-OH (H-K([hArg-Cys])[Dab][ΔPro]R-OH)
cleaved bond (human blood plasma): Cys-hArg, first_seen; also recorded: hArg-Lys; also recorded: Lys-Dab

From PMC7175122 (Biomolecules, 2020)
